In patent US20260240801A1, “COMPOSITIONS FOR TREATING PARKINSON’S DISEASE AND QUALITATIVE ASSESSMENT THEREOF” (InTrance Medical Systems Inc., priority 2023, published 2026):

Columns and labels:
[1] = Stability study of Compound 1 (E920) on storage: purity by HPLC; format: physicochemical
Protocol: (§1) Compound 1 purity was determined by HPLC at two wavelengths 220 nm and 280 nm. Identification of Compound 1 was carried out by IR and NMR methods (^1H NMR, ^13C NMR). The residual solvents methanol and dichloromethane (DCM) were determined by gas chromatography (GC). Residual water content was determined by Karl Fisher analysis. Thermogravimetric analysis (TGA) of Compound 1 was also carried out with hold time of 10 minutes at final temperature of 105° C.
• Detector: UV/Vis or Diode Array Detector • Wavelength: Signal A: 280 nm, Bandwidth: 4 nm, Reference: OFF • Signal B: 220 nm, Bandwidth: 4 nm, Reference: OFF • Column: SunFire C18 Column (150×4.6 mm, 3.5 um) • Mobile Phase A: 0.06% TFA in H2O • Mobile Phase B: 0.04% TFA in (MeOH:H2O, 80:20)
• Autosampler Temperature: 6° C. • Column Temperature: 40° C. • Flow Rate: 1.0 mL/min • Injection Volume: 5 μL • Run Time: 30 min
• Accurately weigh approximately 10.0 mg of test sample into a 20 mL volumetric flask. • Dilute to volume with diluent and mix well. (0.5 mg/mL).
• Integrate all peaks≥0.05% a/a, not present in the blank solution. • ECA—Analytical Method—E920H2—for standard qualification
(§2) The stability profile of Compound 1 (Eurofins CDMO Alphora Inc. code: E920) was being evaluated over a period of 6 months under Long Term storage condition of <−20° C. and 6 months under accelerated condition of 25±2° C./60%±5% RH; and at intermediate storage conditions of 5±3° C. Additional samples are stored at each storage conditions to cover the stability studies up to 12 months, after 6 months satisfactory stability results. Attributes being tested include: description of composition, purity by HPLC, identification by HPLC and water content by Karl Fischer (KF) Method. This study is conducted in compliance with ICH Q1A (R2) and Alphora Standard Operating Procedure SOP LC027.
(§3) The stability profile of Compound 1 (Eurofins CDMO Alphora Inc. code: E920) was being evaluated over a period of up to 12 months under Long Term storage condition of <−20° C. and up to 12 months under accelerated condition of 25±2° C./60%±5% RH; and store only at intermediate storage conditions of 5±3° C. Attributes being tested include: description of composition, purity by HPLC, identification by HPLC and water content by Karl Fischer (KF) Method. This study is conducted in compliance with ICH Q1A (R2) and Alphora Standard Operating Procedure SOP LC027.

[2] = Stability study of Compound 1 (E920) on storage: water content by Karl Fischer; format: physicochemical
Protocol: as §1, §2, §3

## C[C@@](Cc1ccc(O)c(O)c1)(N/N=C/c1cc(O)c(O)c([N+](=O)[O-])c1)C(=O)O [Compound 1, (2s)-2-[(E)-2-[(3,4-dihydroxy-5-nitrophenyl)methylidene]hydrazin-1-yl]-3-(3,4-dihydroxyphenyl)-2-methylpropanoic acid]
[1]; 25° C./60% RH, 1 M
  % Purity at 220 nm by HPLC: 95.7%
  % Purity at 280 nm by HPLC: 96.2%
  % a/a Purity at 220 nm by HPLC: 95.7 % a/a
  % a/a Purity at 280 nm by HPLC: 96.2 % a/a
[1]; 25° C./60% RH, 3 M
  % Purity at 220 nm by HPLC: 93.9%
  % Purity at 280 nm by HPLC: 94.9%
  % a/a Purity at 220 nm by HPLC: 93.9 % a/a
  % a/a Purity at 280 nm by HPLC: 94.9 % a/a
[1]; 25° C./60% RH, 6 M
  % a/a Purity at 220 nm by HPLC: 94.8 % a/a
  % a/a Purity at 280 nm by HPLC: 95.3 % a/a
[1]; 25° C./60% RH, 12 M
  % a/a Purity at 220 nm by HPLC: 93.2 % a/a
  % a/a Purity at 280 nm by HPLC: 95.1 % a/a
[1]; Initial
  % Purity at 220 nm by HPLC: 95.4%
  % Purity at 280 nm by HPLC: 96.1%
[1]; Initial (12-month study)
  % a/a Purity at 220 nm by HPLC: 95.4 % a/a
  % a/a Purity at 280 nm by HPLC: 96.1 % a/a
[1]; −20° C. and 25° C./60% RH
  Three-month stability: satisfactory
  Twelve-month stability: satisfactory
[1]; −20° C., 1 M
  % Purity at 220 nm by HPLC: 95.8%
  % Purity at 280 nm by HPLC: 96.0%
  % a/a Purity at 220 nm by HPLC: 95.8 % a/a
  % a/a Purity at 280 nm by HPLC: 96.0 % a/a
[1]; −20° C., 3 M
  % Purity at 220 nm by HPLC: 94.3%
  % Purity at 280 nm by HPLC: 95.2%
  % a/a Purity at 220 nm by HPLC: 94.3 % a/a
  % a/a Purity at 280 nm by HPLC: 95.2 % a/a
[1]; −20° C., 6 M
  % a/a Purity at 220 nm by HPLC: 96.5% a/a
  % a/a Purity at 280 nm by HPLC: 96.1 % a/a
[1]; −20° C., 12 M
  % a/a Purity at 220 nm by HPLC: 95.9 % a/a
  % a/a Purity at 280 nm by HPLC: 96.6 % a/a
[2]; 25° C./60% RH, 1 M
  % residual water content by KF: 1.63%
[2]; 25° C./60% RH, 1 M (12-month study)
  % residual water content by KF: 1.63%
[2]; 25° C./60% RH, 3 M
  % residual water content by KF: 2.05%
[2]; 25° C./60% RH, 3 M (12-month study)
  % residual water content by KF: 2.05%
[2]; 25° C./60% RH, 6 M
  % residual water content by KF: 3.55%
[2]; 25° C./60% RH, 12 M
  % residual water content by KF: 4.02%
[2]; Initial
  % residual water content by KF: 1.51%
[2]; Initial (12-month study)
  % residual water content by KF: 1.51%
[2]; −20° C., 1 M
  % residual water content by KF: 1.67%
[2]; −20° C., 1 M (12-month study)
  % residual water content by KF: 1.67%
[2]; −20° C., 3 M
  % residual water content by KF: 1.96%
[2]; −20° C., 3 M (12-month study)
  % residual water content by KF: 1.96%
[2]; −20° C., 6 M
  % residual water content by KF: 3.35%
[2]; −20° C., 12 M
  % residual water content by KF: 4.08%
